The values that follow come from US11773062B2, “Deuterated compounds” (priority 2021, dated 2023).

Structures are written as SMILES. Where two headings read alike, the source gives them in different places.

Data set [1] addresses CYP2C9 (Homo sapiens, UniProt P11712). As to the kind of experiment: CYP phenotyping, CYP bactosomes. How it is done:
(§1) Samples were taken at predetermined time points.
(§2) Samples were then centrifuged at −4° C.
(§3) Positive control markers are as specified in Table 11.

Data set [2] deals with CYP2C19 (Homo sapiens, UniProt P33261). Briefly: CYP phenotyping, CYP bactosomes. The note with it: for substrate for CYP2C19: CYP phenotyping; for projected scaled intrinsic clearance, CYP isoform 2C19: scaled by estimated CYP abundance in human liver microsomes (0.009 nmol CYP/mg). How it is done:
as §1, §2, §3

The target of data set [3] is CYP3A4 (Homo sapiens, UniProt P08684). As to the kind of experiment: CYP phenotyping, CYP bactosomes. How it is done: as §1, §2, §3
Chain of CYP3A4 (P08684 whole entry): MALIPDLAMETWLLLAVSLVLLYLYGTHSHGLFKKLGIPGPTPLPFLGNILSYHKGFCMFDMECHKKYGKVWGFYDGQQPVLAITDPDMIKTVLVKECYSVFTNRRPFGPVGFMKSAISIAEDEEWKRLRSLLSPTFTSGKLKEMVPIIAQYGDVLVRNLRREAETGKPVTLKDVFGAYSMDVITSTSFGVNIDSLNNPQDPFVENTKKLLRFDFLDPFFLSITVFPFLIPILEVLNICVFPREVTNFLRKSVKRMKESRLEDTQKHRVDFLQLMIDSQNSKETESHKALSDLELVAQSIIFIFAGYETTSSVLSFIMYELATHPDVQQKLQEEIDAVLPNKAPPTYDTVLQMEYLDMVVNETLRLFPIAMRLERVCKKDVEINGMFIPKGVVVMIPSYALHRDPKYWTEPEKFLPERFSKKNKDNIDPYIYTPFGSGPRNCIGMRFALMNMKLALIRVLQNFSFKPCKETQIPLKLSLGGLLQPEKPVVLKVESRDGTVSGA
The test system of data set [4] is mouse (male CD-1) hepatocytes. As to the kind of experiment: In vitro mouse hepatocytic intrinsic clearance. As to conditions: mouse CD-1 hepatocytes 0.367 million cells/mL, 5 μM (Table 8).
In data set [5] the test system is human (mixed gender) hepatocytes. Briefly: In vitro intrinsic clearance in human hepatocytes with and without MAO-A/B inhibitor combination (first experiment). As to conditions: for % change in half-life, MAO inhibitors vs no inhibitors / % change in intrinsic clearance, MAO inhibitors vs no inhibitors: human hepatocytes (Table 5); for Intrinsic clearance, without inhibitors: without MAO-A/B inhibitor combination (Table 5).
Experimental: Standard final incubation conditions are 1 μM compound in buffer containing nominally ˜0.5 million viable cells/mL, ˜0.9% (v/v) acetonitrile (MeCN) and ˜0.1% (v/v) DMSO (specific assay concentrations outlined above, section 2).
Samples are then centrifuged at 4° C.

Data set [6] concerns the target T1, CYP2B6 (Homo sapiens, UniProt P20813).
T1 sequence (P20813 1-491): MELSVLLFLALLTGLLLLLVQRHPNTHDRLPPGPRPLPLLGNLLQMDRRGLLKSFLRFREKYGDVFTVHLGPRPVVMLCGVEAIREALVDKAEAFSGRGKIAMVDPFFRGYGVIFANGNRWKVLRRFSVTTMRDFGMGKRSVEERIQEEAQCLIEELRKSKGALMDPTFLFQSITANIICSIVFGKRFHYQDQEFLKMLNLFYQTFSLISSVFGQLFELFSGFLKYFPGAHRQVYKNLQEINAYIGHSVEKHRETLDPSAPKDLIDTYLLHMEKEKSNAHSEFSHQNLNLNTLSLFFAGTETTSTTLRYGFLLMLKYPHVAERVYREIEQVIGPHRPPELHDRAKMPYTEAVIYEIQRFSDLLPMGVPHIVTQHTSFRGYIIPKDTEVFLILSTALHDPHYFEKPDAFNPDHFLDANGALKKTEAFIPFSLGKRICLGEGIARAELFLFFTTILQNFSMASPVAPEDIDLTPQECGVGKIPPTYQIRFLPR
As to the kind of experiment: in vitro. The note with it: E. coli CYPEX membranes, 100 pmol/mL CYP. As to the method:
as §1, §2, §3

The target in data set [7] is T2, CYP1A2 (Homo sapiens, UniProt P05177).
T2 sequence (P05177 1-516): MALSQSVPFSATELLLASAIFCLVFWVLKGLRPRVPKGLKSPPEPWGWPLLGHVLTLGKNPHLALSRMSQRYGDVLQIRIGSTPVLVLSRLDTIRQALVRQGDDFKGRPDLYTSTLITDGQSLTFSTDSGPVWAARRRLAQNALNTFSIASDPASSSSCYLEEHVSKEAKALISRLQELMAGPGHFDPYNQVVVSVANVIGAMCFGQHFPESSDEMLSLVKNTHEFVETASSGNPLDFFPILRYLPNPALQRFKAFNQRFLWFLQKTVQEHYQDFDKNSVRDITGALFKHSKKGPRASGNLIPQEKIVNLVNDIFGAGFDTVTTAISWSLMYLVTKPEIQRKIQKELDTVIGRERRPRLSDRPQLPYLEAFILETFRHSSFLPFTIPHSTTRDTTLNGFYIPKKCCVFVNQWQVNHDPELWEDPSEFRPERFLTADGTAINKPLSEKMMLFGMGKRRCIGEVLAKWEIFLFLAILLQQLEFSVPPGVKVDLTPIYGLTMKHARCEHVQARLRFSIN
Briefly: in vitro. How it is done:
as §1, §2, §3

Data set [8] has as its target T3, CYP2C8 (Homo sapiens, UniProt P10632).
T3 sequence (P10632 1-490): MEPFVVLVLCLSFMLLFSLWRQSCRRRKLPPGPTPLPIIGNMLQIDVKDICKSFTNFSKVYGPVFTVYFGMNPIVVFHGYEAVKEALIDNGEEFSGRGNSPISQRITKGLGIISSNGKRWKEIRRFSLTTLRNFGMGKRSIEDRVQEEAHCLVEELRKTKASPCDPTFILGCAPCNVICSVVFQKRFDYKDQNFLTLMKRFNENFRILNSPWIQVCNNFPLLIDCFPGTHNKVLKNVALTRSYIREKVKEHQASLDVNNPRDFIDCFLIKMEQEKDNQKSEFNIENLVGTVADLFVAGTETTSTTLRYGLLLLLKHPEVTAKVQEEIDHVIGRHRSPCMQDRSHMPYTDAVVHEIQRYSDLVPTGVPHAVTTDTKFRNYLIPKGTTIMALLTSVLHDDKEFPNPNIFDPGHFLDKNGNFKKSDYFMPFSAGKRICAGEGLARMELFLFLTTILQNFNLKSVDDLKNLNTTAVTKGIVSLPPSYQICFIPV
As to the kind of experiment: in vitro. As to conditions: E. coli CYPEX membranes, 100 pmol/mL CYP. How it is done:
as §1, §2, §3

Data set [9] concerns the target CYP3A5 (Homo sapiens, UniProt P20815). Briefly: in vitro. As to conditions: E. coli CYPEX membranes, 100 pmol/mL CYP. As to the method: as §1, §2, §3
Data set [10] has as its target T4, CYP2D6 (Homo sapiens, UniProt P10635). As to the kind of experiment: CYP phenotyping, CYP bactosomes. As to conditions: for substrate for CYP2D6: CYP phenotyping; for half-life, CYP isoform 2D6 / intrinsic clearance, CYP isoform 2D6: E. coli CYPEX membranes, 100 pmol/mL CYP.
Experimental: (§4) The CYPs used in this study are heterologously expressed in E. coli and purchased as individualised forms (CYP bactosomes) from CYPEX. Bactosomes contain recombinant CYP isoenzymes combined with CYP reductase leading to a higher specific activity than liver microsomes.
(§5) Phosphate buffer is prepared at 0.1 M, pH 7.4 by combining 0.1 M Na2HPO4 and 0.1 M KH2PO4 solutions.
(§6) Nicotinamide adenine dinucleotide 2′-phosphate reduced tetrasodium salt hydrate (NADPH) is prepared at 10 m<in 0.1 M phosphate buffer (pH 7.4).
(§7) The individual CYP bactosomes are thawed at room temperature undiluted to 200 pmol/mL and 0.1 M phosphate buffer.
(§8) Standard final incubation conditions are 1-3 μM compound in a buffer containing 100 pmol/mL CYP bactosome, 1% (v/v) DMSO.
(§9) The elimination rate constant (k) is calculated using the slope of a ln (MS peak area or response—if internal standard is used) vs. time plot of the test compounds and markers.
(§10) Intrinsic clearance in μL/min/nmol CYP is calculated using the following equation: Clint=−1000 k/CYP concentration
(§11) Projected CYP isoform intrinsic clearance accounting for estimated CYP abundance in human liver microsomes (μL/min/mg microsomal protein)* is calculated using the following equation: Projected set isoform intrinsic clearance=Estimated CYP abundance*Clint * Estimated CYP abundance is taken as an average from three literature references 1, 2 3 and the abundances used are as follows (nmol CYP/mg Human Liver Microsomal Protein):
Data set [11] can be described thus: Human liver mitochondrial fraction intrinsic clearance of SPL026, SPL028i, SPL028iii, SPL028viii. In kind it is in vitro ADME. As to conditions: 0.5 mg/mL human liver mitochondrial fraction (Table 10). The source says:
Human Liver Mitochondrial (HLMt) fractions contain high quantities of MAO enzymes and therefore, provide a useful tool to measure the clearance of MAO substrates.

For data set [12], the target named is T4, CYP2D6. The note with it: for intrinsic clearance, CYP isoform 2D6: human, recombinant enzyme, pH 7.4.
Experimental: as §4, §5, §6, §7, §8, §9, §10, §11
For data set [13], the target named is T4, CYP2D6. As to the kind of experiment: in vitro. As to conditions: recombinant enzyme, pH 7.4.
Experimental: as §4, §5, §6, §7, §8, §9, §10, §11
The mark [14] stands for this setting: E. coli CYPEX membranes, 100 pmol/mL CYP.
Setting [15] is: human hepatocytes, with 100 nM clorgyline + 100 nM deprenyl/selegiline (Table 3).
The mark [16] stands for this setting: human hepatocytes, with MAO-A/B inhibitor combination (Table 5).
The mark [17] stands for this setting: human, recombinant enzyme, pH 7.4.

Chain of CYP2C9 (P11712 whole entry): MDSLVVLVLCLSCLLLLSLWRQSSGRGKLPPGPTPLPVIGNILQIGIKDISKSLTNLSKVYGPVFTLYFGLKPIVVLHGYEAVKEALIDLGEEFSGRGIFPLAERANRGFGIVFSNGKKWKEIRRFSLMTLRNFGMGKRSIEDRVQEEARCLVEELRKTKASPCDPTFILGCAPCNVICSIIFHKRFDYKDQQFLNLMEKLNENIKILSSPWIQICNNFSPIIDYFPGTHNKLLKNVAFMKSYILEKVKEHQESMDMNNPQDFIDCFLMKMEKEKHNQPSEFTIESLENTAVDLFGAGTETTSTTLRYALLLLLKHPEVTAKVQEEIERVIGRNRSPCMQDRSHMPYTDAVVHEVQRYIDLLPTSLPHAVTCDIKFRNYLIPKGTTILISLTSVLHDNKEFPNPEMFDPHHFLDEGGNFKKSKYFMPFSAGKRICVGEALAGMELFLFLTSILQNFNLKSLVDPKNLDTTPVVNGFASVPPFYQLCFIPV
Chain of CYP2C19 (P33261 whole entry, canonical isoform): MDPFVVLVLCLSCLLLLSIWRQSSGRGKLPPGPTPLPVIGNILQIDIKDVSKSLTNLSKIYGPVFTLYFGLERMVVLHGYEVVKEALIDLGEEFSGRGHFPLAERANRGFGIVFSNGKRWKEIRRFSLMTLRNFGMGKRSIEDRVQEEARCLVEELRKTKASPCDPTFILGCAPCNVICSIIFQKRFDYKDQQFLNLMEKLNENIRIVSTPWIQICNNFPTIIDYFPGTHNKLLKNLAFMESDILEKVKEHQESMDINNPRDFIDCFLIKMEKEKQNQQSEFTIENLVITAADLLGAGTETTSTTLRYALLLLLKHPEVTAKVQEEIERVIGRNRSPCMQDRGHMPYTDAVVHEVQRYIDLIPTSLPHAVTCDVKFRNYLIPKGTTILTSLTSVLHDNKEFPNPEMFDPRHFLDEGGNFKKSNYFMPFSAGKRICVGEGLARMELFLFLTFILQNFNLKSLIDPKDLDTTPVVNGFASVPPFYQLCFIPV
Chain of CYP3A5 (P20815 whole entry, canonical isoform): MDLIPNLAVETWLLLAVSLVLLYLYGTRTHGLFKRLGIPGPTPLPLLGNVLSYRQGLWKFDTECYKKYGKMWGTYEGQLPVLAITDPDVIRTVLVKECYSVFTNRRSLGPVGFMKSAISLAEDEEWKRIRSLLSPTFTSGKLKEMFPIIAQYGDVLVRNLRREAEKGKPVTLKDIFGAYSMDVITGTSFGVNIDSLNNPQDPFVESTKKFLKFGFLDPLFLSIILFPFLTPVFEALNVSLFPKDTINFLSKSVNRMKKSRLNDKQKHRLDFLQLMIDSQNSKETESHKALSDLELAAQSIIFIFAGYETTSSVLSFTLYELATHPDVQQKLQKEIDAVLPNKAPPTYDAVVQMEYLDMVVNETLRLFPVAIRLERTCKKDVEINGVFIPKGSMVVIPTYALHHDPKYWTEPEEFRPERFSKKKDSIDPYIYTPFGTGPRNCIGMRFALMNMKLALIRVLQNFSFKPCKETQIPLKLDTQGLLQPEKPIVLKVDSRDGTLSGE
T4 sequence (P10635 whole entry, canonical isoform): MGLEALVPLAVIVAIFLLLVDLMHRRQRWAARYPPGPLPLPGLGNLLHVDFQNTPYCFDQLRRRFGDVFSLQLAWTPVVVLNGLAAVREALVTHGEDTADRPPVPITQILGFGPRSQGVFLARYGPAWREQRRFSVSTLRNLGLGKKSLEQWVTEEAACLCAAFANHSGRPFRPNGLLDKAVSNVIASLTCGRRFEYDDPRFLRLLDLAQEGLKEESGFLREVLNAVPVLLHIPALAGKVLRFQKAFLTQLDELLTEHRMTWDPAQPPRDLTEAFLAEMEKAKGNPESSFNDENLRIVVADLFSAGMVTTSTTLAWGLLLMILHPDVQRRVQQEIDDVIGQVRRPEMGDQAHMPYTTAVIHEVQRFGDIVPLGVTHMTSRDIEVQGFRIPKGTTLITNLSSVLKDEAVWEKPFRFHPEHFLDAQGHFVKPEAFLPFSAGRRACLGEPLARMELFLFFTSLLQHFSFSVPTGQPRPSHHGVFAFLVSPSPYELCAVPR

As for `[2H]C([2H])(Cc1c[nH]c2ccccc12)N(C)C` [SPL028i, α,α,-bis-deuterium-N,N-dimethyltryptamine], in data set [1] (setting [14]), the “half-life, CYP isoform 2C9” value is greater than 4 h and the “intrinsic clearance, CYP isoform 2C9” value is less than 29 μL/min/nmol CYP. In addition, in data set [2], the “substrate for CYP2C19” value is given as “substrates” and the “projected scaled intrinsic clearance, CYP isoform 2C19” value is listed as 0.3 μl/min/mg microsomal protein. In addition, in data set [2] (setting [14]), the “half-life, CYP isoform 2C19” value was found to be 3 h and the “intrinsic clearance, CYP isoform 2C19” value came out at 39 μL/min/nmol CYP. Moreover, in [3] (setting [14]), the “half-life, CYP isoform 3A4” value is greater than 4 h and the “intrinsic clearance, CYP isoform 3A4” value is given as less than 29 μL/min/nmol CYP. In [4], the “w Half-life” value was found to be 0.323 h and the “w Intrinsic clearance” value is recorded as 97.4 μL/min/million cells. In [5], the “% change in half-life, MAO inhibitors vs no inhibitors” value was −5.33% and the “% change in intrinsic clearance, MAO inhibitors vs no inhibitors” value worked out at 4.67%. Besides, the “Intrinsic clearance, with inhibitors” value in [5] (setting [15]) amounted to 7.50 μL/min/million cells. In data set [5] (setting [16]), the “Half-life, with inhibitors” value was 2.8292 h and the “Intrinsic clearance, with inhibitors” value is reported as 7.5 μL/min/million cells. For the same compound, the “Half-life, with inhibitors” value in data set [5] (human hepatocytes, with MAO-A/B inhibitors (Table 4; unit given only in Table 5)) amounted to 2.8292 h. For the same compound, the “quicker intrinsic clearance in the presence of MAO inhibitors” value in data set [5] (human hepatocytes, with vs without MAO inhibitors) is given as roughly 5%. In data set [5] (human hepatocytes), the “Intrinsic clearance, without inhibitors” value was found to be 7.15 μL/min/million cells. Moreover, in data set [6], the “half-life, CYP isoform 2B6” value is greater than 4 h and the “intrinsic clearance, CYP isoform 2B6” value was less than 29 μL/min/nmol CYP. In data set [7] (setting [14]), the “half-life, CYP isoform 1A2” value was greater than 4 h and the “intrinsic clearance, CYP isoform 1A2” value is on record as less than 29 μL/min/nmol CYP. Moreover, in data set [8], the “half-life, CYP isoform 2C8” value was greater than 4 h and the “intrinsic clearance, CYP isoform 2C8” value was less than 29 μL/min/nmol CYP. Moreover, in [9], the “half-life, CYP isoform 3A5” value is greater than 4 h and the “intrinsic clearance, CYP isoform 3A5” value is reported as less than 29 μL/min/nmol CYP. In data set [10], the “substrate for CYP2D6” value is reported as “substrates”; the “half-life, CYP isoform 2D6” value amounted to 9 min; the “intrinsic clearance, CYP isoform 2D6” value is recorded as 793 μL/min/nmol CYP. Also, the “Intrinsic Clearance” value in data set [11] was determined as 44.6 μL/min/mg protein. Further, the “projected scaled intrinsic clearance, CYP isoform 2D6” value in data set [12] is recorded as 9.4 μl/min/mg microsomal protein.
For the compound `[2H]C([2H])(Cc1c[nH]c2ccccc12)N(C)C` [SPL028ii, α,α,-bis-deuterium-N,N-dimethyltryptamine], in [1] (setting [14]), the “half-life, CYP isoform 2C9” value was greater than 4 h and the “intrinsic clearance, CYP isoform 2C9” value is on record as less than 29 μL/min/nmol CYP. For the same compound, in data set [2], the “substrate for CYP2C19” value was “substrates” and the “projected scaled intrinsic clearance, CYP isoform 2C19” value is recorded as 0.4 μl/min/mg microsomal protein. Moreover, in data set [2] (setting [14]), the “half-life, CYP isoform 2C19” value came to 2.93 h and the “intrinsic clearance, CYP isoform 2C19” value amounted to 39 μL/min/nmol CYP. In [3] (setting [14]), the “half-life, CYP isoform 3A4” value is greater than 4 h and the “intrinsic clearance, CYP isoform 3A4” value is recorded as less than 29 μL/min/nmol CYP. Also, in [4], the “w Half-life” value is 0.307 h and the “w Intrinsic clearance” value stood at 102.7 μL/min/million cells. Besides, in data set [5], the “% change in half-life, MAO inhibitors vs no inhibitors” value is given as 14.69% and the “% change in intrinsic clearance, MAO inhibitors vs no inhibitors” value is −19.13%. For the same compound, the “Intrinsic clearance, with inhibitors” value in [5] (setting [15]) turned out to be 8.78 μL/min/million cells. In addition, the “Intrinsic clearance, with inhibitors” value in data set [5] (setting [16]) is on record as 8.78 μL/min/million cells. The “Intrinsic clearance, without inhibitors” value in data set [5] (human hepatocytes) is reported as 10.46 μL/min/million cells. Besides, in [6], the “half-life, CYP isoform 2B6” value is greater than 4 h and the “intrinsic clearance, CYP isoform 2B6” value is listed as less than 29 μL/min/nmol CYP. For the same compound, in data set [7] (setting [14]), the “half-life, CYP isoform 1A2” value is greater than 4 h and the “intrinsic clearance, CYP isoform 1A2” value is less than 29 μL/min/nmol CYP. In addition, in data set [8], the “half-life, CYP isoform 2C8” value is greater than 4 h and the “intrinsic clearance, CYP isoform 2C8” value was less than 29 μL/min/nmol CYP. Also, in data set [9], the “half-life, CYP isoform 3A5” value was greater than 4 h and the “intrinsic clearance, CYP isoform 3A5” value is listed as less than 29 μL/min/nmol CYP. Moreover, in [10], the “substrate for CYP2D6” value is “substrates”; the “half-life, CYP isoform 2D6” value is reported as 9 min; the “intrinsic clearance, CYP isoform 2D6” value stood at 801 μL/min/nmol CYP. Besides, in [12], the “projected scaled intrinsic clearance, CYP isoform 2D6” value is on record as 9.5 μl/min/mg microsomal protein.
Regarding `COc1ccccc1OCCNCC(O)COc1cccc2[nH]c3ccccc3c12` (stereo not shown) [Carvedilol, reference compound], in data set [1] (setting [17]), the half-life (commonly the time in which the quantity being followed falls by half) was determined as 2.23 h and the “intrinsic clearance, CYP isoform 2C9” value stood at 52 μL/min/nmol CYP. Moreover, in [2] (setting [17]), the half-life amounted to 0.217 h and the “intrinsic clearance, CYP isoform 2C19” value is recorded as 526 μL/min/nmol CYP. In data set [3] (setting [17]), the half-life is 0.817 h and the “intrinsic clearance, CYP isoform 3A4” value was 142 μL/min/nmol CYP. Moreover, in data set [7] (setting [17]), the half-life was determined as 0.5 h and the “intrinsic clearance, CYP isoform 1A2” value is given as 231 μL/min/nmol CYP. Moreover, in data set [13], the half-life stood at 2 min. For the same compound, the “intrinsic clearance, CYP isoform 2D6” value in [12] came out at 4483 μL/min/nmol CYP.
Regarding `COc1ccc2c(c1)[C@]13CCCC[C@@H]1[C@H](C2)N(C)CC3` [Dextromethorphan], the half-life in data set [13] was 3 min. Also, the “intrinsic clearance, CYP isoform 2D6” value in data set [12] is on record as 2686 μL/min/nmol CYP.
